28 compounds from patent US7501430B2 (ArQule, Inc., priority 2006, dated 2009) can be followed below.

Where two headings read alike, the source gives them in different places.

For the test, the target named is T1, mutant B-RAF (Homo sapiens, UniProt P15056, V600E).
T1 construct: purchased Upstate (Charlottesville, Va.)
Nature of the test: RAF biochemical assay (MEK-1 phosphorylation, anti-phospho MEK1/2 detection). Conditions: for inhibition at 10 µM: read-out: Mutant B-RAF % inhibition; for IC50: read-out: Mutant B-RAF IC50. In a few lines:
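Detection is by ELISA: after a 30 min room-temperature reaction, plate-captured GST-MEK-1 is probed with anti-phospho MEK1/2, then an AP-tagged secondary antibody with fluorescent Attophos read-out.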

T1 sequence (P15056 whole entry V600E): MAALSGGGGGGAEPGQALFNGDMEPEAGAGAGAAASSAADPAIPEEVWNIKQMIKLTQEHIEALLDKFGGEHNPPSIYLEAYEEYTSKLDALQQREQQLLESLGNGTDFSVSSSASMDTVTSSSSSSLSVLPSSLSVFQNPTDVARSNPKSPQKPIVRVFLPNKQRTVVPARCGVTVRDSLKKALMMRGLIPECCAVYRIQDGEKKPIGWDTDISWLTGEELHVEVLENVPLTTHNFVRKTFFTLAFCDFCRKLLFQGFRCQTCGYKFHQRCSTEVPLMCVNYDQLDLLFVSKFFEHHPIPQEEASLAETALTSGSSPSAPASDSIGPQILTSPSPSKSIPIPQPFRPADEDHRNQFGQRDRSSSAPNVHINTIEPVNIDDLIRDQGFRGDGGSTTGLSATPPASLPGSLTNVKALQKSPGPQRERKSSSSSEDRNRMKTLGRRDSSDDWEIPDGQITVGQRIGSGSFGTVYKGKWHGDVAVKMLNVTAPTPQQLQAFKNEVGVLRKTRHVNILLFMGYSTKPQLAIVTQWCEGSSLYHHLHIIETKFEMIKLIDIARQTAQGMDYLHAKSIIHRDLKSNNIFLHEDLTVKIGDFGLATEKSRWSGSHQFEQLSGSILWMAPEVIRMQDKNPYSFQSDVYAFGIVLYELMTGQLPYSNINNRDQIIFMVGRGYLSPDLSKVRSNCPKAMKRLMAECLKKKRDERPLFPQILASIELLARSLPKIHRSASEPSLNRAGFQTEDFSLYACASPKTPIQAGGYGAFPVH

For the compound `O=C(NCC1CCCCC1)N1CCC[C@@H](Nc2nccc(-c3c(-c4ccc(F)cc4)nc4occn34)n2)C1` [Example 68, (3R)-N-(cyclohexylmethyl)-3-({4-[6-(4-fluorophenyl)imi-dazo[2,1-b][1,3]oxazol-5-yl]pyrimidin-2-yl}amino)piperidine-1-carboxamide], the inhibition at 10 µM turned out to be 42%.

Regarding `COc1ccc(NC(=O)N2CCC[C@@H](Nc3nccc(-c4c(-c5ccc(F)cc5)nc5occn45)n3)C2)c(OC)c1` [Example 69, (3R)-N-(2,4-dimethoxy-phenyl)-3-({4-[6-(4-fluorophenyl)imidazo[2,1-b][1,3]oxazol-5-yl]pyrimidin-2-yl}amino)piperidine-1-carboxamide], for the setting “@ 10 uM”, the inhibition at 10 µM was 42%.

As to `COc1ccc(Cl)cc1NC(=O)N1CCC[C@@H](Nc2nccc(-c3c(-c4ccc(F)cc4)nc4occn34)n2)C1` [Example 70, (3R)-N-(5-chloro-2-methoxyphenyl)-3-({4-[6-(4-fluorophenyl)imidazo[2,1-b][1,3]oxazol-5-yl]pyrimidin-2-yl}amino)piperidine-1-carboxamide], the inhibition at 10 µM (@ 10 uM) stood at 49%.

For `O=C(NCCc1ccc(F)cc1)N1CCC[C@@H](Nc2nccc(-c3c(-c4ccc(F)cc4)nc4occn34)n2)C1` [Example 71, (3R)-N-[2-(4-fluorophenyl)ethyl]-3-({4-[6-(4-fluorophenyl)imidazo[2,1-b][1,3]oxazol-5-yl]pyrimidin-2-yl}amino)piperidine-1-carboxamide], under “@ 10 uM”, the inhibition at 10 µM was found to be 16%.

For `C[C@@H](NC(=O)N1CCC[C@@H](Nc2nccc(-c3c(-c4ccc(F)cc4)nc4occn34)n2)C1)c1ccccc1` [Example 72, (3R)-3-({4-[6-(4-fluorophenyl)imidazo[2,1-b][1,3]oxazol-5-yl]pyrimidin-2-yl}amino)-N-[(1R)-1-phenylethyl]piperidine-1-carboxamide], the inhibition at 10 µM (@ 10 uM) is 53%.

With `O=C(Nc1ccc(F)c(F)c1)N1CCC[C@@H](Nc2nccc(-c3c(-c4ccc(F)cc4)nc4occn34)n2)C1` [Example 73, (3R)-N-(3,4-difluorophenyl)-3-({4-[6-(4-fluorophenyl)imidazo[2,1-b][1,3]oxazol-5-yl]pyrimidin-2-yl}amino)piperidine-1-carboxamide], where the note is “@ 10 uM”, the inhibition at 10 µM is 37%.

Take `O=C(Nc1ccccc1F)N1CCC[C@@H](Nc2nccc(-c3c(-c4ccc(F)cc4)nc4occn34)n2)C1` [Example 74, (3R)-N-(2-fluorophenyl)-3-({4-[6-(4-fluorophenyl)imidazo[2,1-b][1,3]oxazol-5-yl]pyrimidin-2-yl}amino)piperidine-1-carboxamide]: the inhibition at 10 µM (@ 10 uM) was found to be 35%.

Turning to `COc1cc([N+](=O)[O-])ccc1NC(=O)N1CCC[C@@H](Nc2nccc(-c3c(-c4ccc(F)cc4)nc4occn34)n2)C1` [Example 75, (3R)-3-({4-[6-(4-fluorophenyl)imidazo[2,1-b][1,3]oxazol-5-yl]pyrimidin-2-yl}amino)-N-(2-methoxy-4-nitrophenyl)piperidine-1-carboxamide], the IC50 is above 10000 nM.

On to `O=C(NCc1ccc(F)cc1)N1CCC[C@@H](Nc2nccc(-c3c(-c4ccc(F)cc4)nc4occn34)n2)C1` [Example 76, (3R)-N-(4-fluorobenzyl)-3-({4-[6-(4-fluorophenyl)imidazo[2,1-b][1,3]oxazol-5-yl]pyrimidin-2-yl}amino)piperidine-1-carboxamide], for which the inhibition at 10 µM (@ 10 uM) came to 36%.

As to `COc1cccc(-c2nc3sccn3c2-c2ccnc(N[C@@H]3CCCNC3)n2)c1` [Example 77, 4-[6-(3-methoxyphenyl)imidazo[2,1-b][1,3]thiazol-5-yl]-N-[(3R)-piperidin-3-yl]pyrimidin-2-amine], the IC50 was determined as 1810 nM.

As for `Fc1ccc(-c2nc3sccn3c2-c2ccnc(N[C@@H]3CCCNC3)n2)cc1F` [Example 78, 4-[6-(3,4-difluorophenyl)imidazo[2,1-b][1,3]thiazol-5-yl]-N-[(3R)-piperidin-3-yl]pyrimidin-2-amine], the IC50 was 1260 nM.

For `Cc1cn2c(-c3ccnc(N[C@@H]4CCCNC4)n3)c(-c3ccc(F)cc3)nc2s1` [Example 79, 4-[6-(4-fluorophenyl)-2-methylimidazo[2,1-b][1,3]thiazol-5-yl]-N-((3R)-piper-idin-3-yl]pyrimidin-2-amine], the inhibition at 10 µM (@ 10 uM) was 67%.

`COc1cccc(-c2nc3sccn3c2-c2ccnc(N[C@@H]3CCCN(C(=O)NCc4ccccc4)C3)n2)c1` [Example 80, (3R)-N-benzyl-3-({4-[6-(3-methoxyphenyl)imidazo[2,1-b][1,3]thiazol-5-yl]pyrimidin-2-yl}amino)piperidine-1-carboxamide]: under “@ 10 uM”, the inhibition at 10 µM came out at 40%.

As to `COc1cccc(-c2nc3sccn3c2-c2ccnc(N[C@@H]3CCCN(C(=O)NCc4ccco4)C3)n2)c1` [Example 81, (3R)-N-(2-furylmethyl)-3-({4-[6-(3-methoxyphenyl)imi-dazo[2,1-b][1,3]thiazol-5-yl]pyrimidin-2-yl}amino)piperidine-1-carboxamide], the inhibition at 10 µM is 50%.

On to `COc1cccc(-c2nc3sccn3c2-c2ccnc(N[C@@H]3CCCN(S(=O)(=O)c4ccc(F)cc4)C3)n2)c1` [Example 82, N-{(3R)-1-[(4-fluorophenyl)sulfonyl]piper-idin-3-yl}-4-(6-(3-methoxyphenyl)imidazo[2,1-b][1,3]thiazot-5-yl]pyrimidin-2-amine], for which the IC50 worked out at 192 nM.

Turning to `COc1ccc(C(=O)N2CCC[C@@H](Nc3nccc(-c4c(-c5cccc(OC)c5)nc5sccn45)n3)C2)cc1` [Example 83, N-[(3R)-1-(4-methoxybenzoyl)piperidin-3-yl]-4-[6-(3-methoxyphenyl)imidazo[2,1-b][1,3]thiazol-5-yl]pyrimidin-2-amine], the IC50 is above 3000 nM.

In the case of `COc1cccc(-c2nc3sccn3c2-c2ccnc(N[C@@H]3CCCN(C(=O)Nc4ccc(N(C)C)cc4)C3)n2)c1` [Example 84, (3R)-N-[4-(dimethylamino)phenyl]-3-({4-[6-(3-methoxyphenyl)imi-dazo[2,1-b][1,3]thiazol-5-yl]pyrimidin-2-yl}amino)piperidine-1-carboxamide], the inhibition at 10 µM was determined as 19%.

For `O=S(=O)(c1ccc(F)cc1)N1CCC[C@@H](Nc2nccc(-c3c(-c4ccc(F)c(F)c4)nc4sccn34)n2)C1` [Example 85, 4-[6-(3,4-difluorophenyl)imidazo[2,1-b][1,3]thiazol-5-yl]-N-{(3R)-1-[(4-fluorophenyl)sulfonyl]piperidin-3-yl}pyrimidin-2-amine], the IC50 was 58 nM.

Turning to `CN(C)c1ccc(NC(=O)N2CCC[C@@H](Nc3nccc(-c4c(-c5ccc(F)c(F)c5)nc5sccn45)n3)C2)cc1` [Example 86, (3R)-3-({4-[6-(3,4-difluorophenyl)imidazo[2,1-b][1,3]thiazol-5-yl]pyrimidin-2-yl}amino)-N-[4-(dimethylamino)phenyl]pip-eridine-1-carboxamide], under “@ 10 uM”, the inhibition at 10 µM turned out to be 54%.

In the case of `O=C(NCc1ccccc1)N1CCC[C@@H](Nc2nccc(-c3c(-c4ccc(F)c(F)c4)nc4sccn34)n2)C1` [Example 87, (3R)-N-benzyl-3-({4-[6-(3,4-difluorophenyl)imidazo[2,1-b][1,3]thiazol-5-yl]pyrimidin-2-yl}amino)piperidine-1-carboxamide], the inhibition at 10 µM (@ 10 uM) was found to be 53%.

With `O=C(NCc1ccco1)N1CCC[C@@H](Nc2nccc(-c3c(-c4ccc(F)c(F)c4)nc4sccn34)n2)C1` [Example 88, (3R)-3-({4-[6-(3,4-difluorophenyl)imidazo[2,1-b][1,3]thiazol-5-yl]pyrimidin-2-yl}amino)-N-(2-furylmethyl)piperidine-1-carboxamide], the inhibition at 10 µM (@ 10 uM) turned out to be 54%.

`COc1ccc(C(=O)N2CCC[C@@H](Nc3nccc(-c4c(-c5ccc(F)c(F)c5)nc5sccn45)n3)C2)cc1` [Example 89, 4-[6-(3,4-difluorophenyl)imidazo[2,1-b][1,3]thiazol-5-yl]-N-[(3R)-1-(4-methoxybenzoyl)piper-idin-3-yl]pyrimidin-2-amine]: the inhibition at 10 µM (@ 10 uM) worked out at 40%.

As for `Cc1cn2c(-c3ccnc(N[C@@H]4CCCN(S(=O)(=O)c5ccc(F)cc5)C4)n3)c(-c3ccc(F)cc3)nc2s1` [Example 91, 4-[6-(4-fluorophenyl)-2-methylimidazo[2,1-b][1,3]thiazol-5-yl]-N-{(3R)-1-[(4-fluorophenyl)sulfonyl]piper-idin-3-yl}pyrimidin-2-amine], the IC50 came out at 352 nM.

As for `Cc1cn2c(-c3ccnc(N[C@@H]4CCCN(C(=O)NCc5ccco5)C4)n3)c(-c3ccc(F)cc3)nc2s1` [Example 93, (3R)-3-({4-[6-(4-fluoro-phenyl)-2-methylimidazo[2,1-b][1,3]thiazol-5-yl]pyrimidin-2-yl}amino)-N-(2-furylmethyl)piperidine-1-carboxamide], the inhibition at 10 µM (@ 10 uM) turned out to be 61%.

`Cc1cn2c(-c3ccnc(N[C@@H]4CCCN(C(=O)Nc5ccc(N(C)C)cc5)C4)n3)c(-c3ccc(F)cc3)nc2s1` [Example 94, (3R)-N-[4-(dimethyl-amino)phenyl]-3-({4-[6-(4-fluorophenyl)-2-methylimidazo[2,1-b][1,3]thiazol-5-yl]pyrimidin-2-yl}amino)piperidine-1-carboxamide]: the IC50 was above 3000 nM.

For `COc1cccc(-c2nc3sccn3c2-c2ccnc(N[C@@H]3CCCN(S(=O)(=O)c4ccc(Cl)cc4)C3)n2)c1` [Example 95, N-{(3R)-1-[(4-chlorophenyl)sulfonyl]piperidin-3-yl}-4-[6-(3-methoxyphenyl)imidazo[2,1-b][1,3]thiazol-5-yl]pyrimidin-2-amine], the IC50 was determined as 147 nM.

As to `Cc1cn2c(-c3ccnc(N[C@@H]4CCCN(S(=O)(=O)c5ccc(Cl)cc5)C4)n3)c(-c3ccc(F)cc3)nc2s1` [Example 96, N-{(3R)-1-[(4-chlorophenyl)sulfonyl]piperidin-3-yl}-4-[6-(4-fluorophenyl)-2-methyl-imidazo[2,1-b][1,3]thiazol-5-yl]pyrimidin-2-amine], the IC50 is 26 nM.

Consider `c1ccc2cc(-c3nc4sccn4c3-c3ccnc(N[C@@H]4CCCNC4)n3)ccc2c1` [Example 97, 4-[6-(2-naphthyl)imidazo[2,1-b][1,3]thiazol-5-yl]-N-[(3R)-piperidin-3-yl]pyrimidin-2-amine], for which the IC50 is 314 nM.

Broadly, the inhibition is the drop in the measured response relative to a control, in per cent. Broadly, the IC50 is the point on the concentration scale where inhibition reaches its midpoint.
